Read-outs that look alike come from different tables or passages of the source.
How the values were obtained:
HCT116 tumor organoids = test: Tumor organoid cytotoxicity (CellTiter-Glo 3D); format: cell-based, human
Protocol: (§1) Cell based cytotoxicity dose response and combination studies. […] Plates were then incubated for 3 days before treatment.
Cell Line Tumor Organoid Culture.
Tumor Organoid Cytotoxicity.

[1] = Mouse liver microsome stability; details: CD-1, mouse
SW620 tumor organoids [2] = test: Tumor organoid cytotoxicity (CellTiter-Glo 3D)
SW620 tumor organoids [3] = test: Synergy studies with SN38 (LOEWE synergy scores); format: cell-based, human; details: killing SW620 tumor organoids
Protocol: as §1
(e.g., synergy score 20 corresponds to 20% of response beyond expectation). According to our experience, the synergy scores near 0 gives limited confidence on synergy or antagonism.
When the synergy score is: • Less than −10: the interaction between two drugs is likely to be antagonism; • From −10 to 10: the interaction between two drugs is likely to be additivity; • Larger than 10: the interaction between two drugs is likely to be synergy.

[4] = Human microsomal stability; format: in vitro ADME; details: human microsomes, Table 6, read-out: Microsomal stability Human t1/2
cat-CHD1L ATPase = biological target: T1, cat-CHD1L ATPase (Homo sapiens, UniProt Q86WJ1); test: CHD1L ATPase assay with recombinant catalytic domain (cat-CHD1L); format: biochemical; details: for IC50: Table 6, read-out: cat-CHD1L inhibition IC50
T1 construct: inferred from Ni-NTA / imidazole purification; made in house; host or cells: E. coli Rosetta 2 (DE3) pLysS; constructs were a gift from Helena Berglund, Karolinska Institute
T1 sequence (Q86WJ1 16-611 limits assumed): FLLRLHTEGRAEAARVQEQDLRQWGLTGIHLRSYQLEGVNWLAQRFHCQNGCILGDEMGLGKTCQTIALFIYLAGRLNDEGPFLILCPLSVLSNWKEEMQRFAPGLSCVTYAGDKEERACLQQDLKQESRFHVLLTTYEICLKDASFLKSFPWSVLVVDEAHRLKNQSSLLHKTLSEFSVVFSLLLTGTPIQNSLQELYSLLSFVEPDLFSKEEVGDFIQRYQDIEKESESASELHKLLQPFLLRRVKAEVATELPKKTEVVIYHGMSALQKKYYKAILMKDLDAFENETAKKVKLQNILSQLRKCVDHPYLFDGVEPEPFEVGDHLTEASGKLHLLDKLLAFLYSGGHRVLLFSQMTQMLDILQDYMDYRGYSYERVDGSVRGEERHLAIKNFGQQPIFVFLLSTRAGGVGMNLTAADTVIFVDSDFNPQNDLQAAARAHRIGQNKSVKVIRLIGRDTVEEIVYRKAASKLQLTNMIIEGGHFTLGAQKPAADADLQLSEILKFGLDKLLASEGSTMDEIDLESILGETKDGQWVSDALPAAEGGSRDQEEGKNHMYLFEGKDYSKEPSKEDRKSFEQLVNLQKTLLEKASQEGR
Protocol: All reactions were carried out using low volume non-binding surface 384-well plates (Corning Inc., Corning N.Y.). cat-CHD1L or fl-CHD1L (100 nM) and 200 nM c-Myc DNA or mononucelosome (Active Motif, Carlsbad, Calif.) were added to a buffer containing 50 mM Tris pH 7.5, 50 mM NaCl, 1 mM DTT, 5% glycerol, and the reaction was initiated by the addition of 10 μM ATP (New England Biolabs, Ipswich, Mass.) to a total volume of 10 μL and incubated at 37° C. for 1 h. ATPase activity was assayed by adding 500 nM of Phosphate Sensor (Life Technologies, Carlsbad, Calif.), containing labeled phosphate-binding protein, specifically labeled with the fluorophore MDCC, and measuring excitation (430 nm) and emission (450 nm) immediately on an EnVision® plate reader (PerkinElmer, Hopkinton, Mass.). An inorganic phosphate standard curve was used to convert the fluorescence to [Pi], and enzyme kinetics were determined using Prism8 (GraphPad Software, San Diego, Calif.).
Assay composition was the same as described above using cat-CHD1L, except that the reaction mixture volume was modified to accommodate addition of drug or DMSO. Using a Janus® liquid handler (PerkinElmer, Hopkinton, Mass.), a selected amount of compounds dissolved in 100% DMSO were mixed with 50 mM Tris pH 7.5, 50 mM NaCl, 1 mM DTT, 5% glycerol buffer to 200 μM in 10% DMSO. […] The negative control used was 1% DMSO and 10 mM EDTA was used as a positive control. Reactions were initiated with the addition of 10 μM ATP and incubated at 37° C. for 1 h. ATPase activity was measured by fluorescence by adding 500 nM Phosphate Sensor. cat-CHD1L was screened against a 20,000-compound diversity set from Life Chemicals (Woodbridge, Conn.) and a Kinase Inhibitor library from Selleck Chemicals (Houston, Tex.).
CHD1L Enzyme ATPase Assay. […] All reactions were carried out using low volume nonbinding surface 384-well plates (Corning Inc., Corning, N.Y.). […] The reaction was initiated by the addition of 10 μmol/L ATP (New England Biolabs, Ipswich, Mass.) to a total volume of 10 μL and incubated at 37° C. for 1 hour. ATPase activity was measured by adding 500 nmol/L of Phosphate Sensor (ThermoFisher, Waltham, Mass.) measuring excitation (430 nm) and emission (450 nm) immediately on an Envision plate reader (PerkinElmer, Waltham, Mass.). Background signal was determined by using all assay components excluding the enzyme.

[5] = Homo sapiens, HCT-116, 72 h, Table 6, read-out: 3 D Cytotoxicity 72 hr IC50 (μM) HCT116
[6] = Homo sapiens, HCT-116, single agent, Table 4A, read-out: Tumor Organoid Cytotoxicity IC50 (μM) HCT116
[7] = liver microsomes, pH 7.4, In Vitro Half-Life (Min), second series, different liver microsome preparation
[8] = Homo sapiens, SW-620, 72 h, read-out: 3 D Cytotoxicity 72 hr IC50 (μM) SW620
[9] = Homo sapiens, SW-620, read-out: Tumor Organoid Cytotoxicity IC50 (μM) SW620
[10] = liver microsomes, pH 7.4, Microsomal stability Mouse t1/2 (min), Table 6
[11] = Homo sapiens, SW-620, read-out: IC50 of cytotoxicity in SW620 cells

Structure (SMILES)	IC50 (HCT116 tumor organoids; [5])	IC50 (HCT116 tumor organoids; [6])	half-life at 10 μM [1, 7]	IC50 (SW620 tumor organoids [2]; [8])	IC50 (SW620 tumor organoids [2]; [9])	IC50 (cat-CHD1L ATPase)	further results
Cc1nc(N2CCCC2)nc(Nc2ccc(NC(=O)Cc3cccs3)cc2)c1F [Compound 6.1, N-(4-((5-fluoro-6-methyl-2-(pyrrolidin-1-yl)pyrimidin-4-yl)amino)phenyl)-2-(thiophen-2-yl)acetamide]	> 40 µM	> 30 µM	34.9 min	> 40 µM	> 40 µM		
O=C(Cc1cccs1)Nc1ccc(Nc2nc(N3CCCC3)ncc2F)cc1 [Compound 6.2, N-(4-((5-fluoro-2-(pyrrolidin-1-yl)pyrimidin-4-yl)amino)phenyl)-2-(thiophen-2-yl)acetamide]			26.1 min	> 40 µM	> 40 µM		
Cc1nc(N2CCCC2)nc(Nc2ccc(N(C)C(=O)Cc3cccs3)cc2)c1F [Compound 6.4]	> 40 µM	> 30 µM		> 40 µM	28.4 µM		half-life at 10 μM ([1]; microsomes, pH 7.4): 31.4 min
Cc1cc(Nc2ccc(NC(=O)c3c[nH]c4ncccc34)cc2)nc(N2CCCC2)n1 [Compound 6.9, N-(4-((6-methyl-2-(pyrrolidin-1-yl)pyrimidin-4-yl)amino)phenyl)-1H-pyrrolo[2,3-b]pyridine-3-carboxamide]	19.7 µM	19.6 µM	295 min	8.3 µM	8.1 µM		synergism with irinotecan (and SN38), in words (SW620 tumor organoids [3]): synergism
COc1cnc(N2CCCC2)nc1Nc1ccc(NC(=O)Cc2cccs2)cc1 [Compound 6.10, N-(4-((5-methoxy-2-(pyrrolidin-1-yl)pyrimidin-4-yl)amino)phenyl)-2-(thiophen-2-yl)-acetamide]	> 40 µM	> 30 µM	16.7 min	24.1 µM	22.6 µM		
Cc1cc(Oc2ccc(NC(=O)Cc3cccs3)cc2)nc(Cl)n1 [Compound 6.12, N-(4-((2-chloro-6-methylpyrimidin-4-yl)oxy)phenyl)-2-(thiophen-2-yl)acetamide]	> 40 µM	> 30 µM	9.3 min	> 20 µM	> 20 µM		
Cc1cc(Oc2ccc(NC(=O)Cc3cccs3)cc2)nc(N2CCCC2)n1 [Compound 6.13, N-(4-((6-methyl-2-(pyrrolidin-1-yl)pyrimidin-4-yl)oxy)phenyl)-2-(thiophen-2-yl)acetamide]	> 40 µM	> 30 µM	43.1 min	> 20 µM	> 20 µM		
Cc1cc(Oc2ccc(NC(=O)c3c[nH]c4ccccc34)cc2)nc(N2CCCC2)n1 [Compound 6.14, N-(4-((6-methyl-2-(pyrrolidin-1-yl)pyrimidin-4-yl)oxy)phenyl)-1H-indole-3-carboxamide]	15.3 µM	15.3 µM	70.4 min	11.1 µM	10.4 µM		
Cc1cc(Nc2ccc(NC(=O)Cc3cccs3)cc2)nc(N2CCOCC2)n1 [Compound 6.15, N-(4-((6-methyl-2-morpholinopyrimidin-4-yl)amino)phenyl)-2-(thiophen-2-yl)acetamide]	19.7 µM	19.7 µM	22.7 min	13.1 µM	16.4 µM		
Cc1cc(Nc2ccc(NC(=O)Cc3cccc4ccccc34)cc2)nc(N2CCCC2)n1 [Compound 6.16, N-(4-((6-methyl-2-(pyrrolidin-1-yl)pyrimidin-4-yl)amino)phenyl)-2-(naphthalen-1-yl)acetamide]	2.4 µM	2.43 µM					half-life [4]: 59.5 min; half-life at 10 μM [1, 10]: 55.5 min; IC50 (SW620 tumor organoids [2]; [11]): < 10 µM
Cc1cc(Nc2ccc(NC(=O)Cc3c(C)[nH]c4ccccc34)cc2)nc(N2CCCC2)n1 [Compound 6.21, 2-(2-methyl-1H-indol-3-yl)-N-(4-((6-methyl-2-(pyrrolidin-1-yl)pyrimidin-4-yl)amino)phenyl)acetamide]				1.7 µM	1.6 µM		half-life [4]: 43.8 min; half-life at 10 μM [1, 10]: 47.8 min; IC50 (SW620 tumor organoids [2]; [11]): < 10 µM
Cc1cc(Nc2ccc(NC(=O)Cc3cc(Br)cs3)cc2)nc(N2CCCCC2)n1 [Compound 6.49]	14.7 µM			17 µM		2300 nM	
Cc1cc(Nc2ccc(NC(=O)Cn3ccnc3)cc2)nc(N2CCCC2)n1 [Compound 6.50]	26.2 µM			> 40 µM		> 20000 nM	
Cc1cc(Nc2ccc(NC(=O)Cn3ccnc3)cc2)nc(N2CCCCC2)n1 [Compound 6.51]	15.1 µM			40.7 µM		6000 nM	
Cc1cc(Nc2ccc(NC(=O)Cn3ccnc3)cc2)nc(N2CCN(C)CC2)n1 [Compound 6.52]	> 20 µM			> 20 µM		> 20000 nM	
Cc1cc(Nc2ccc(NC(=O)Cc3cc(Br)cs3)cc2)n2nc(N)nc2n1 [Compound 6.53]	> 40 µM			> 40 µM		> 20000 nM	
Cc1cc(NCc2ccc(NC(=O)Cc3cc(Br)cs3)cc2)n2nc(N)nc2n1 [Compound 6.54]	> 40 µM			> 40 µM		3500 nM	
Cc1cc(Nc2ccc(NC(=O)Cc3cc(Br)cs3)cc2)n2nc(N3CCCC3)nc2n1 [Compound 6.55]	> 40 µM			> 40 µM		18700 nM	
Cc1cc(NCc2ccc(NC(=O)Cc3cc(Br)cs3)cc2)n2nc(N3CCCC3)nc2n1 [Compound 6.56]	> 40 µM			> 40 µM		2500 nM	
Cc1cc(NCc2ccc(NC(=O)Cc3cc(Br)cs3)cc2)nc(N2CCNCC2)n1 [Compound 6.57]	10.8 µM			14.6 µM		2400 nM	
O=C(Cc1cc(Br)cs1)Nc1ccc(CNc2cc(C(F)(F)F)nc(N3CCCC3)n2)cc1 [Compound 6.58]						1400 nM	CHD1L enzyme inhibition, in words (cat-CHD1L ATPase; recombinant cat-CHD1L): good enzyme inhibition; IC50 (HCT116 tumor organoids; Table 6, read-out: 3 D Cytotoxicity 72 hr IC50 (μM) HCT116): 7.8 µM; IC50 (SW620 tumor organoids [2]; read-out: 3 D Cytotoxicity 72 hr IC50 (μM) SW620, Table 6): 2.2 µM
O=C(Cc1cc(Br)cs1)Nc1ccc(Nc2cc(C(F)(F)F)nc(N3CCCC3)n2)cc1 [Compound 6.59]	11.9 µM			14.8 µM		1000 nM	

— patent US20230103444A1 (The Regents of the University of Colorado, a Body Corporate, priority 2020, published 2023)
